{"source": "patent US20070292351A1", "about": "“Assay for efficacy of histone deacetylase inhibitors” (Methylgene, Inc., priority 2006, published 2007)", "key": {"[1]": {"system": "peripheral blast cells from AML patients", "conditions": "ex vivo treatment (Nebbioso et al. 2004); cited from earlier work"}, "[2]": {"system": "human colon cancer HCT15 cells", "experiment": "RT-PCR of MT3 transcription in HCT15 cells", "format": "cell-based", "conditions": "16 hours, real-time RT-PCR normalized against beta-actin (FIG. 1)", "protocol": "FIG. 1. […] HCT15 cells were treated with HDAC inhibitors or indicated compounds for 16 hours before total RNAs are isolated. RNA levels of MT3 were measured by real-time RT-PCR and are subsequently normalized against β-actin.\nColon cancer HCT15 cells were exposed to 1 μM MGCD0103 for various amounts of time, and MT3 RNA levels were monitored by conventional semi-quantitative RT-PCR. Maximal induction is achieved between 8 h and 24 h of exposure and maintained through 72 h.\nRNA was extracted from 8×10^6 cells using the Qiagen RNeasy Mini kit (cat#74106, Qiagen, Missisauga Ont.) following the manufacturer's instructions. RT reaction was performed using the Expand Reverse Transcriptase kit from Roche (Cat#1 785 834 Roche Applied Biosciences, Laval, Que) with 1 μg total RNA together with 1 μl oligo(dT) primer (cat#y01212, Invitrogen-Canada, Burlington, Ont). cDNA was synthesized using an Eppendorf Mastercycler gradient PCR apparatus (Brinkmann Instruments Canada LTD., Mississauga, Ontario), using a two cycle protocol. For the 1st cycle reaction mixture (0.5 μl H2O, 4 μl of 5× Buffer, 2 μl DTT, 2 ul of 10 mM dNTPs, 0.5 μl RNAsin (cat#N211B, Promega, Fisher Scientific, Whitby, Ont.) and […] of the Expand Reverse Transcriptase (Cat#1785834, Roche, Laval, Quebec)) was incubated at 65° C. for 10 minutes and then set on ice. A second cycle was performed at 42° C. for 1 hour. The resulting cDNA products were kept at 4° C. until used.\nOne ul of the resulting cDNA was used for every amplification reaction with 18.9 ul H2O, 1.25 ul of 10 mM dNTPs, 0.5 ul of each primer pair, 2.5 ul of 10× Buffer. The PCR reaction was carried out in an Eppendorf Mastercycler gradient. The sequences of the primers used for the amplification of selected biomarkers, as well as the details of the PCR reaction cycles are featured below. All buffers came from Expand Long Template PCR system (Roche, Laval, Quebec, Cat#11681842001). All primers were synthesized by Invitrogen (Invitrogen-Canada, Burlington, Ont.)\nAnalysis of transcripts was performed using STORM 860 (Amersham Biosciences, Baie d'Urfe, Qubec). Transcription of genes was normalized to transcription of actin, which was performed in the same RT-PCR reaction. The relative expression level of gense was normalized to baseline signals.\nQuantitative PCR with SYBR Green I detection with Mastercycler® ep realplex (Eppendorf) was performed using LightCycler® 480 SYBR Green I Master (Roche Diagnostics). SYBR Green I assays were performed with 600 nM primers. All other reaction conditions were as described by the manufacturer. Amplification conditions were 5 minutes of initial denaturation at 95° C., followed by 40 cycles of each 15 seconds at 95° C., 15 seconds at 63.4° C., 20 seconds at 68° C., a melting curve from 60° C. to 95° C. was recorded. Quantification was performed using Pfaffl method, a relative quantification method in real-time PCR (Nucleic Acids Research 2001 29:2002-2007). Primers were synthesized by Invitrogen (Invitrogen-Canada, Burlington, Ont.)."}}}
{"compound": "Nc1ccccc1NC(=O)c1ccc(CNC(=O)OCc2cccnc2)cc1", "note": "[MS-275]", "values": [{"measurement": "level of pro-apoptotic TRAIL expression", "setting": "[1]", "value": "increase"}, {"measurement": "Induction of transcription of MT3", "setting": "[2]", "value": "induced"}]}
{"compound": "O=C(CCCCCCC(=O)Nc1ccccc1)NO", "note": "[SAHA]", "values": [{"measurement": "Induction of transcription of MT3", "setting": "[2]", "value": "induced"}]}
